This note sets out measurements from patent US9340549B2, “Oxazolidinone compounds and derivatives thereof” (priority 2012, dated 2016).

The subject of test [1] is total β-catenin in SW480 colorectal cells. Nature of the test: cells. It counts as cell-based. To be noted: SW480 cells, 40 to 48 hours, top concentration 10 μM, read-out: SW480-Total β-Catenin IC50 IP. As for the experimental part: Total β-Catenin MSD 96-Well Plate Assay for SW480 Cells
SW480 colorectal cells were seeded at a density of 10,000/well in CellBIND 96-well plates (Corning catalog no. 3300) in 60 μL of normal growth medium (MEM alpha supplemented with 10% heat inactivated FBS, GlutaMAX, pyruvate, and 10 mM HEPES).
A 10-point, 3-fold dilution series for each TNKS inhibitor was constructed in a 96-well “stock” plate. […] The plates were incubated at 37° C. for 40 to 48 hours. The media was removed from the CellBIND plate via plate inversion and gentle shaking and the inverted plate was touched to a paper towel and immediately placed on ice. […] Plates containing cell lysates were sealed and shaken for one hour at 4° C. and then quickly frozen in a −80° C. for approximately 15 to 30 minutes followed by gradually thawing at 4° C. Finally, lysate containing plates were centrifuged @1000×g (2073 rpm) for 10 minutes at 4° C.
The sealed MSD plate was incubated overnight in a cold room with gentle shaking. The MSD plate was then blocked with 150 μL of Blocker “A” per well and incubated overnight at 4° C. with vigorous shaking. The blocked MSD plate was washed 4 times with 150 μL/well TBS-T wash buffer (150 mM NaCl, 50 mM Tris, pH 7.5, 0.02% Tween-20). Cell lysates (75 μL) were transferred to prepared MSD plates and incubated at 4° C. ON with gentle shaking. […] The detection antibody was incubated for 1 hour at room temperature with vigorous shaking after which plates were washed 3 times with 150 μL/well TBS-T wash buffer. Plates were processed for analysis by the addition of 150 μL/well MSD Read 4× Buffer T with surfactant (catalog no. R92TC-2; diluted 1:3 in deionized water) and were read on the SECTOR Imager 6000.

The target in test [2] is 6×HIS-tankyrase 1 (1091-1325) (Homo sapiens (Human), UniProt O95271). Nature of the test: biochemical. It is filed as biochemical. Conditions: 400 nM NAD, 60 minutes at room temperature, read-out: TNKS1 IP IC50.
Chain of 6×HIS-tankyrase 1 (1091-1325) (O95271 1091-1325): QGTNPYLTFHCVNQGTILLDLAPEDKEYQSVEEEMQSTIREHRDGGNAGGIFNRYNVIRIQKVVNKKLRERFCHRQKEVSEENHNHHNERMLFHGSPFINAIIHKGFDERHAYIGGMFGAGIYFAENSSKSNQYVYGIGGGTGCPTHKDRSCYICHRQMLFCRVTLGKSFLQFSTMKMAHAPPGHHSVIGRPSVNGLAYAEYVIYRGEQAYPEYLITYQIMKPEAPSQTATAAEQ

Read-outs that look alike come from different tables or passages of the source.

Turning to `CC1(C)OC(=O)N([C@H]2CC[C@H](n3c(=O)[nH]c4c(F)cc(F)cc43)CC2)[C@H]1c1ccccc1` [Example 104, (S)-3-((1r,4S)-4-(4,6-difluoro-2-oxo-2,3-dihydro-1H-benzo[d]imidazol-1-yl)cyclohexyl)-5,5-dimethyl-4-phenyloxazolidin-2-one], the IC50 in test [1] (Homo sapiens) was above 10000 nM; in test [2] ([…] enzyme), 93 nM.
The corresponding values for `CC1(C)OC(=O)N([C@H]2CC[C@H](c3nnc(-c4ccccc4)o3)CC2)[C@H]1c1ccccc1` [Example 85, (S)-5,5-dimethyl-4-phenyl-3-((1r,4S)-4-(5-phenyl-1,3,4-oxadiazol-2-yl)cyclohexyl)oxazolidin-2-one] are 2410 nM and 45.2 nM.
As to `CC1(C)OC(=O)N([C@H]2CC[C@H](n3c(=O)[nH]c4cccnc43)CC2)[C@@H]1c1ccccc1` [Example 38, (R)-5,5-dimethyl-3-((1r,4R)-4-(2-oxo-1H-imidazo[4,5-b]pyridin-3(2H)-yl)cyclohexyl)-4-phenyloxazolidin-2-one], the IC50 in test [1] (Homo sapiens) was found to be 4740 nM.
Turning to `CC1(C)OC(=O)N(c2ccc(C(=O)Nc3cccc4cccnc34)cc2)[C@H]1c1ccccn1` [Example 123, (S)-4-(5,5-dimethyl-2-oxo-4-(pyridin-2-yl)oxazolidin-3-yl)-N-(quinolin-8-yl)benzamide], the IC50 in test [1] (Homo sapiens) came out at 3440 nM; in test [2] ([…] enzyme) it was 228 nM.
Regarding “(S)-3-(4-(6-amino-5-(5-chloropyridazin-3-yl)pyridin-3-yl)phenyl)-5,5-dimethyl-4-phenyloxazolidin-2-one [Example 100]”, the IC50 in test [1] stood at 3380 nM; in test [2] ([…] enzyme), 220 nM.
Turning to `CC1(C)OC(=O)N(C2CCN(c3cnc4ccn(-c5ncccn5)c4c3)CC2)[C@H]1c1ccccc1` [Example 140, (S)-5,5-dimethyl-4-phenyl-3-(1-(1-(pyrimidin-2-yl)-1H-pyrrolo[3,2-b]pyridin-6-yl)piperidin-4-yl)oxazolidin-2-one], the IC50 in test [1] (Homo sapiens) came out at 1830 nM; in test [2] ([…] enzyme), 24.3 nM.
`CC1(C)OC(=O)N(c2ccc(-c3cc(-c4ccccn4)cnc3F)cc2)[C@H]1c1ccccc1` [Example 114, (S)-3-(4-(6′-fluoro-[2,3′-bipyridin]-5′-yl)phenyl)-5,5-dimethyl-4-phenyloxazolidin-2-one]: the results for the IC50 in test [1] (Homo sapiens) and in test [2] ([…] enzyme) were 1780 nM and 447 nM, respectively.
The matching figures for `CC1(C)OC(=O)N([C@@H]2CC=C(c3cnc4cc[nH]c4c3)CC2)[C@H]1c1ccccc1` (mixture of isomers) [Example 169, mixture of (S)-3-((S)-4-(1H-pyrrolo[3,2-b]pyridin-6-yl)cyclohex-3-en-1-yl)-5,5-dimethyl-4-phenyloxazolidin-2-one and (S)-3-((R)-4-(1H-pyrrolo[3,2-b]pyridin-6-yl)cyclohex-3-en-1-yl)-5,5-dimethyl-4-phenyloxazolidin-2-one]: 3180 nM and 88.6 nM.
Turning to `CC1(C)OC(=O)N(c2ccc(C(=O)Nc3cccc4cccnc34)cc2)C1c1ccccn1` (racemic) [Example 121, (+/−)-(R/S)-4-(5,5-dimethyl-2-oxo-4-(pyridin-2-yl)oxazolidin-3-yl)-N-(quinolin-8-yl)benzamide], the IC50 in test [1] (Homo sapiens) was determined as 5640 nM; in test [2] (0.25 nM enzyme), 310 nM.
With `CC1(C)OC(=O)N([C@H]2CC[C@H](n3c(=O)[nH]c4cc(C#N)c(F)cc43)CC2)[C@H]1c1ccccc1` [Example 103, 1-((1S,4r)-4-((S)-5,5-dimethyl-2-oxo-4-phenyloxazolidin-3-yl)cyclohexyl)-6-fluoro-2-oxo-2,3-dihydro-1H-benzo[d]imidazole-5-carbonitrile], the 50% inhibitory concentration (IC50) in test [1] (Homo sapiens) came to 67.2 nM.
As for `CC1(C)OC(=O)N([C@H]2CC[C@H](c3cc4ccncc4[nH]c3=O)CC2)[C@H]1c1ccccc1` [Example 139, (S)-5,5-dimethyl-3-((1r,4s)-4-(2-oxo-1,2-dihydro-1,7-naphthyridin-3-yl)cyclohexyl)-4-phenyloxazolidin-2-one], the IC50 in test [2] (0.25 nM enzyme) was determined as 11.5 nM.
As for `Cc1nc(C(=O)N[C@H]2CC[C@H](N3C(=O)OC(C)(C)[C@@H]3c3ccccc3)CC2)cs1` [Example 166, N-((1S,4r)-4-((S)-5,5-dimethyl-2-oxo-4-phenyloxazolidin-3-yl)cyclohexyl)-2-methylthiazole-4-carboxamide], the IC50 in test [2] ([…] enzyme) is above 46300 nM.
For `CC1(C)OC(=O)N([C@H]2CC[C@H](NC(=O)c3csc(-c4ncccn4)n3)CC2)[C@H]1c1ccccc1` [Example 183, N-((1S,4r)-4-((S)-5,5-dimethyl-2-oxo-4-phenyloxazolidin-3-yl)cyclohexyl)-2-(pyrimidin-2-yl)thiazole-4-carboxamide], the IC50 in test [2] ([…] enzyme) worked out at 3.94 nM.
For the compound `CC1(C)OC(=O)N([C@H]2CC[C@H](n3ncc4cc(C#N)ccc43)CC2)[C@@H]1c1ccccc1` [Example 180, 1-((1R,4r)-4-((R)-5,5-dimethyl-2-oxo-4-phenyloxazolidin-3-yl)cyclohexyl)-1H-indazole-5-carbonitrile], in test [2] ([…] enzyme), the IC50 stood at 915 nM.
`CC1(C)OC(=O)N([C@H]2CC[C@H](c3cnc4[nH]ccc4c3)CC2)[C@H]1c1ccccc1` [Example 137, (S)-3-((1r,4s)-4-(1H-pyrrolo[2,3-b]pyridin-5-yl)cyclohexyl)-5,5-dimethyl-4-phenyloxazolidin-2-one]: the IC50 in test [2] (0.25 nM enzyme) was 218 nM.
On to `CC1(C)OC(=O)N([C@H]2CC[C@H](c3cccnc3)CC2)[C@H]1c1ccccc1` [Example 133, (S)-5,5-dimethyl-4-phenyl-3-((1r,4s)-4-(pyridin-3-yl)cyclohexyl)oxazolidin-2-one], for which, in test [2] (0.25 nM enzyme), the IC50 was 1380 nM.
For the compound `CC1(C)OC(=O)N([C@H]2CC[C@H](NC(=O)c3cc4ccncc4[nH]3)CC2)[C@H]1c1ccccc1` [Example 149, N-((1S,4r)-4-((S)-5,5-dimethyl-2-oxo-4-phenyloxazolidin-3-yl)cyclohexyl)-1H-pyrrolo[2,3-c]pyridine-2-carboxamide], the 50% inhibitory concentration (IC50) in test [2] ([…] enzyme) is 34 nM.
Same read-out and setting: to `CC(C)c1cc(C(=O)N[C@H]2CC[C@H](N3C(=O)OC(C)(C)[C@@H]3c3ccccc3)CC2)[nH]n1` [Example 154, N-((1S,4r)-4-((S)-5,5-dimethyl-2-oxo-4-phenyloxazolidin-3-yl)cyclohexyl)-3-isopropyl-1H-pyrazole-5-carboxamide] belongs 2320 nM; to `CC1(C)OC(=O)N([C@H]2CC[C@H](NC(=O)c3csc(Br)n3)CC2)[C@H]1c1ccccc1` [Example 182, 2-bromo-N-((1S,4r)-4-((S)-5,5-dimethyl-2-oxo-4-phenyloxazolidin-3-yl)cyclohexyl)thiazole-4-carboxamide], 32.1 nM.
Consider `CC1(C)OC(=O)N([C@H]2CC[C@H](n3c(=O)n(CC(F)F)c4cnccc43)CC2)[C@H]1c1ccccc1` [Example 39, (S)-3-((1r,4S)-4-(3-(2,2-difluoroethyl)-2-oxo-2,3-dihydro-1H-imidazo[4,5-c]pyridin-1-yl)cyclohexyl)-5,5-dimethyl-4-phenyloxazolidin-2-one], for which, in test [1] (Homo sapiens), the IC50 worked out at 6750 nM.
Turning to `COc1ccccc1C(=O)N[C@H]1CC[C@H](N2C(=O)OC(C)(C)[C@@H]2c2ccccc2)CC1` [Example 163, N-((1S,4r)-4-((S)-5,5-dimethyl-2-oxo-4-phenyloxazolidin-3-yl)cyclohexyl)-2-methoxybenzamide], the IC50 in test [2] ([…] enzyme) is 220 nM.
Still for that read-out and setting: the result for `CC1(C)OC(=O)N([C@H]2CC[C@H](NC(=O)c3ccncc3)CC2)[C@H]1c1ccccc1` [Example 142, N-((1S,4r)-4-((S)-5,5-dimethyl-2-oxo-4-phenyloxazolidin-3-yl)cyclohexyl)isonicotinamide] reads 205 nM; that for `CC1(C)OC(=O)N([C@H]2CC[C@H](NC(=O)c3ccncn3)CC2)[C@H]1c1ccccc1` [Example 165, N-((1S,4r)-4-((S)-5,5-dimethyl-2-oxo-4-phenyloxazolidin-3-yl)cyclohexyl)pyrimidine-4-carboxamide], 260 nM.
Consider `CC1(C)OC(=O)N([C@H]2C[C@H](c3nnc(-c4ccccc4)o3)C2)[C@@H]1c1ccccc1` (single isomer, unassigned) [Example 176], for which the half-maximal inhibitory concentration (IC50) in test [2] (0.25 nM enzyme) amounted to 3130 nM.
Consider `Cn1cc2cccc(C(=O)N[C@H]3CC[C@H](N4C(=O)OC(C)(C)[C@@H]4c4ccccc4)CC3)c2n1` [Example 145, N-((1S,4r)-4-((S)-5,5-dimethyl-2-oxo-4-phenyloxazolidin-3-yl)cyclohexyl)-2-methyl-2H-indazole-7-carboxamide], for which the IC50 in test [2] ([…] enzyme) worked out at 13.7 nM.
The same measure, in the same setting: to `CC1(C)OC(=O)N([C@H]2CC[C@H](NC(=O)c3cnn4cccnc34)CC2)[C@H]1c1ccccc1` [Example 146, N-((1S,4r)-4-((S)-5,5-dimethyl-2-oxo-4-phenyloxazolidin-3-yl)cyclohexyl)pyrazolo[1,5-a]pyrimidine-3-carboxamide] belongs 9.18 nM.

Usually IC50 stands for the concentration that gives 50% inhibition.
